Experimental data: the supplement of paper PMC11061612

Assays:
[1] = test system: RERF-LC-Sq1 (Squamous Cell Lung Carcinoma); assay: combination Emax (second highest fraction inhibited in the dose matrix, 72 h); higher = more inhibition; extreme values may be limits of the assay
Outline: (§1)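 Cell lines in DMEM/F12 or RPMI with 10% FBS were plated in 1536-well plates, held 24 hours at 37°C, 5% CO2, then given two-drug dose matrices for 72 hours (DMSO typically 0.2%). Viability was read by CellTiter-Glo 2.0 luminescence and scaled as inhibition from 0 (vehicle wells) to 1 (blank wells). Combination Emax is the second-highest inhibition in the matrix; Bliss excess is observed combination effect minus expected EA + EB − EA·EB, EA and EB being single-agent effects.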

IST-MES1 (Mesothelioma) = assay: as above
Outline: as §1

[2] = test system: PANC-03-27 (Pancreatic Carcinoma); assay: as above
Outline: as §1

LN-229 (Glioblastoma) = assay: as above
Outline: as §1

[3] = test system: COLO-680N (Esophageal Squamous Cell Carcinoma); assay: as above
Outline: as §1

[4] = test system: SK-PN-DW (Other Solid Carcinomas); assay: as above
Outline: as §1

[5] = test system: KE-37 (T-Lymphoblastic Leukemia); assay: as above
Outline: as §1

[6] = test system: LK-2 (Squamous Cell Lung Carcinoma); assay: as above
Outline: as §1

SF268 (Low Grade Glioma) = assay: as above
Outline: as §1

[7] = test system: 23132-87 (Gastric Carcinoma); assay: as above
Outline: as §1

[8] = test system: REH (B-Lymphoblastic Leukemia); assay: as above
Outline: as §1

[9] = test system: HEC-1 (Endometrial Carcinoma); assay: as above
Outline: as §1

[10] = test system: CAL-120 (Breast Carcinoma); assay: as above
Outline: as §1

WM278 (Melanoma) = assay: as above
Outline: as §1

[11] = test system: NCI-H2342 (Lung Adenocarcinoma); assay: as above
Outline: as §1

[12] = test system: MFE-280 (Endometrial Carcinoma); assay: as above
Outline: as §1

SF539 (Glioblastoma) = assay: as above
Outline: as §1

[13] = test system: VAL (B-Cell Non-Hodgkin's Lymphoma); assay: Bliss excess, mean over the matrix (fraction); higher = more synergy
Outline: as §1

[14] = test system: CAL-120 (Breast Carcinoma); assay: as above
Outline: as §1

[15] = test system: OPM-2 (Plasma Cell Myeloma); assay: as above
Outline: as §1
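Throughout, for Bliss excess, mean over the matrix: after 72 h of two-drug dosing.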

Row | Compound | combination Emax [1] | combination Emax (IST-MES1 (Mesothelioma)) | combination Emax [2] | combination Emax (LN-229 (Glioblastoma)) | combination Emax [3] | combination Emax [4] | combination Emax [5] | combination Emax [6] | combination Emax (SF268 (Low Grade Glioma)) | combination Emax [7] | combination Emax [8] | combination Emax [9] | combination Emax [10] | combination Emax (WM278 (Melanoma)) | combination Emax [11] | combination Emax [12] | combination Emax (SF539 (Glioblastoma)) | Bliss excess [13] | Bliss excess [14] | Bliss excess [15]
1 | NC1(C(=O)N[C@@H](CCO)c2ccc(Cl)cc2)CCN(c2ncnc3[nH]ccc23)CC1 [Capivasertib] + CC(C)n1c(=O)n(C)c2cnc3cc(F)c(-c4ccc(OCCCN5CCCCC5)nc4)cc3c21 [AZD1390] (first compound max 10 µM, 7x7, partner max 0.3 µM) | 0.841 | 0.249 | 0.241 | 0.104 | 0.197 | 0.597 | 0.72 | 0.0982 | 0.272 | 0.165 | 0.461 | 0.145 | 0.454 | 0.316 | 0.284 | 0.583 | 0.617 | -0.0887 | -0.086 | -0.0346
2 | NC1(C(=O)N[C@@H](CCO)c2ccc(Cl)cc2)CCN(c2ncnc3[nH]ccc23)CC1 [Capivasertib] + Cn1cnc2c(F)c(Nc3ccc(Br)cc3Cl)c(C(=O)NOCCO)cc21 [Selumetinib] (first compound max 10 µM, 7x7, partner max 10 µM) | 0.917 | 0.366 | 0.517 | 0.484 | 0.392 | 0.597 | 0.707 | 0.467 | 0.315 | 0.396 | 0.492 | 0.239 | 0.444 | 0.722 | 0.381 | 0.68 | 0.68 | -0.0242 | 0.0219 | 0.0515
3 | Cc1cc2ncnn2cc1Nc1ncc2c(n1)n(C1CCOCC1)c(=O)n2C [AZD7648] + C=CCn1c(=O)c2cnc(Nc3ccc(N4CCN(C)CC4)cc3)nc2n1-c1cccc(C(C)(C)O)n1 [AZD1775] (first compound max 10 µM, partner max 1 µM) | 0.672 | 0.402 | 0.878 | 0.35 | 0.353 | 0.875 | 1 | 0.894 | 0.344 | 0.659 | 0.848 | 0.137 | 0.498 | 0.254 | 0.255 | 0.355 | 0.998 | -0.0919 | 0.0463 | -0.0006
4 | COc1nnc2ccc(N3CCC(c4ccc(OCCN5CCN(C)C(=O)[C@H]5C)cc4)CC3)nn12 [AZD5153] + CC1(C)CCC(CN2CCN(c3ccc(C(=O)NS(=O)(=O)c4ccc(NCC5CCOCC5)c([N+](=O)[O-])c4)c(Oc4cnc5[nH]ccc5c4)c3)CC2)=C(c2ccc(Cl)cc2)C1 [Venetoclax] (first compound max 1 µM, 7x7, partner max 1 µM) | 0.52 | 0.591 | 0.255 | 0.309 | 0.344 | 0.482 | 0.7 | 0.396 | 0.462 | 0.141 | 0.911 | 0.602 | 0.336 | 0.447 | 0.315 | 0.38 | 0.604 | -0.0493 | -0.0434 | 0.0082
5 | CN(CCO)CC[C@H](CSc1ccccc1)Nc1ccc(S(=O)(=O)NC(=O)c2ccc(N3CCC([C@@H](O)c4ccccc4-c4ccc(Cl)cc4)CC3)cc2)cc1S(=O)(=O)C(F)(F)F [AZD4320] + C[C@@H](Nc1cc(F)cc(F)c1)c1cc(C(=O)N(C)C)cc2c(=O)cc(N3CCOCC3)oc12 [AZD8186] (first compound max 1 µM, 7x7, partner max 3 µM) | 0.274 | 0.325 | 0.564 | 0.389 | 0.243 | 0.757 | 1 | 0.794 | 0.66 | 0.74 | 1 | 0.392 | 0.735 | 0.85 | 0.443 | 0.864 | 0.373 | 0.0137 | 0.0037 | 0.0851
6 | CC(=O)Nc1cccc(-n2c(=O)n(C3CC3)c(=O)c3c(Nc4ccc(I)cc4F)n(C)c(=O)c(C)c32)c1 [Trametinib] + Cc1nc(-c2cn3c(n2)-c2ccc(-c4cnn(C(C)(C)C(N)=O)c4)cc2OCC3)n(C(C)C)n1 [Taselisib] (first compound max 1 µM, 7x7, partner max 10 µM) | 0.981 | 0.434 | 0.982 | 0.803 | 0.501 | 0.695 | 0.676 | 0.608 | 0.484 | 0.636 | 0.544 | 0.346 | 0.564 | 0.983 | 0.5 | 0.939 | 0.989 | 0.101 | 0.0676 | 0.165
7 | CCN(CCO)CCCOc1ccc2c(Nc3cc(CC(=O)Nc4cccc(F)c4)[nH]n3)ncnc2c1 [AZD2811] + C[C@@H]1COCCN1C2=NC(=NC(=C2)C3(CC3)[S@](=N)(=O)C)C4=C5C=CNC5=NC=C4 [AZD6738] (first compound max 1 µM, 7x7, partner max 10 µM) | 0.791 | 0.345 | 0.837 | 0.562 | 0.309 | 0.947 | 1 | 0.698 | 0.381 | 0.811 | 0.787 | 0.212 | 0.396 | 0.332 | 0.213 | 0.436 | 0.955 | -0.0336 | -0.0464 | -0.0187
